Experimental data reported in patent US20100069254A1, “Cell Culture Model for Demyelination/Remyelination” (priority 2008, published 2010).
“Also recorded” adds a separate entry of the source.

Tests used:
[1] = tested on: animals; details: injection of 2 μl of a 1% solution; cited from earlier work
[2] = tested on: oligodendrocytes and neurons; experiment: MTS metabolic activity assay (CellTiter 96 AQueous One) of demyelinated cell cultures
Description: Metabolic activity of cells was then measured by an MTS assay as described in the text.
Monitoring of metabolic activity (CellTiter 96® AQueous One; Promega) is used to identify concentrations that caused a minimum amount of damage to the oligodendrocytes and neurons. In this assay a tetrazolium compound (MTS) and an electron coupling reagent (phenazine ethosulfate) are used for calorimetric detection of metabolic activity. MTS is bioreduced, presumably by NADPH or NADH, into a colored formazan product that is soluble in tissue culture medium and can be detected spectrophotometrically. Absorbance at about […] is proportional to metabolic activity and is commonly used to monitor the number of living cells in culture.

[3] = tested on: Xenopus tadpoles; details: 0.1 to 0.2 μg/ml in tadpole bins; cited from earlier work

Compound	local demyelination in animals [1]	cellular damage (metabolic assay) ([2]; relatively low concentrations (0.1%), 10 minutes)	demyelination in Xenopus tadpoles [3]	effect on cellular metabolism / damage to neural or glial cell bodies (metabolic assay) ([2]; 10 μg/ml, 10 minute exposure)
lysophosphatidylcholine	cause local demyelination	significant cellular damage		
Oc1c(Cl)cc(Cl)c(Cl)c1Cc1c(O)c(Cl)cc(Cl)c1Cl [hexachlorophene]			cause demyelination	without an observable effect on cellular metabolism; also recorded: mild enough to prevent significant damage to the neural or glial cell bodies
